Measured values taken from patent publication US10689404B1, “Preparation method of tetraboronic acid compounds, and tetraboronic acid compounds” (Tamkang University, priority 2019, dated 2020).

Experiments:
Type in all cases: cell-based
osteosarcoma cell U2OS [1] = test: Flow cytometry of DAHMI fluorescence content (boron compound content in cells); conditions: for Fluorescence content relative to the clinical drug boronophenylalanine: 2.0 mM, ratio to BPA; for Fluorescence content: boron compound 2.0 mM, DAHMI sensor, flow cytometer
Experimental: (§1) The tetraboronic acid compound prepared by the preparation method is subjected to a biological experimental test for further discussing the application of the tetraboronic acid compound as a potential drug of the BNCT. Since the BNCT is mainly used for a head and neck cancer, the experiments are performed using osteosarcoma cell U2OS as a material.
The content of the boron atoms in the osteosarcoma cells is further analyzed, and the fluorescence sensor DAHMI in the cells is excited by a flow cytometer (Model: Thermo Fisher Scientific Attune™ NxT Flow Cytometer) to detect the fluorescence content, thereby analyzing the content of the boron compound bonded to the fluorescence sensor DAHMI. After the osteosarcoma cells are treated with the clinical drug boronophenylalanine (BPA), B3 and B9 respectively, the fluorescence content is detected by the flow cytometer.

osteosarcoma cell U2OS [2] = test: Fluorescence microscopy with DAHMI sensor: entry of the tetraboronic acid compound into the cell nucleus; conditions: osteosarcoma cells, compound acting 24 hours, 1.0 mM DAHMI at 37° C. for 20 minutes, nuclei stained with TOTO-3
Experimental: as §1
(§2) By utilizing the characteristics that a fluorescence sensor (DAHMI) is stably bonded to boric acid, and a complex compound thereof can emit blue fluorescence, whether the tetraboronic acid compound enters cells or not is observed. The tetraboronic acid compound is firstly added to the osteosarcoma cells to act for 24 hours. Next, after the tetraboronic acid compound is washed away, the fluorescence sensor DAHMI is added and soaked for 20 minutes, and the cells are cleaned with phosphate buffered saline (PBS). Finally, the cell nuclei are stained with a TOTO™-3 dye or the mitochondria are stained with a Mito tracker Green FM dye, and the cells are observed under a fluorescence microscope (Model: Leica DM2500 & DM2500 LED Optical microscopes), and the results are shown in FIG. 2.
Referring to FIG. 2, FIG. 2 is a cell fluorescence micrograph of a tetraboronic acid compound entering osteosarcoma cells according to one embodiment of the present invention. […]

osteosarcoma cell U2OS [3] = test: Fluorescence microscopy with DAHMI sensor: accumulation in mitochondria versus BPA; conditions: osteosarcoma cells, mitochondria stained with Mito tracker Green FM
Experimental: as §1, §2
Referring to FIG. 3, FIG. 3 is a cell fluorescence micrograph of a tetraboronic acid compound and a clinical drug boronophenylalanine (BPA) according to one embodiment of the present invention.

In the case of `O=C(NCc1ccc(B(O)O)cc1)C(c1cccc(B(O)O)c1)N(C(=O)c1ccc(B(O)O)cc1)c1ccc(B(O)O)cc1` (centres unmarked) [Example B3], the “Fluorescence content relative to the clinical drug boronophenylalanine” value (osteosarcoma cell U2OS [1]) is reported as 1.95 times, the Fluorescence content (osteosarcoma cell U2OS [1]) is reported as 4831 A.u and the “Entry into the cell nucleus (blue DAHMI fluorescence brightness, FIG. 2)” value (osteosarcoma cell U2OS [2]) is reported as “enter the cell nucleus more easily than other compounds”. For the same compound, the “Accumulation in the mitochondria (DAHMI fluorescence brightness level compared with BPA, FIG. 3)” value (osteosarcoma cell U2OS [3]) was “more capable of accumulating in the mitochondria than clinical BPA”.

In the case of `O=C(NCc1ccc(B(O)O)cc1F)C(c1cc(B(O)O)ccc1F)N(C(=O)c1ccc(B(O)O)cc1F)c1ccc(B(O)O)cc1` (centres unmarked) [Example B9], the “Fluorescence content relative to the clinical drug boronophenylalanine” value (osteosarcoma cell U2OS [1]) is reported as 1.44 times, the Fluorescence content (osteosarcoma cell U2OS [1]) is reported as 3568 A.u and the “Entry into the cell nucleus (blue DAHMI fluorescence brightness, FIG. 2)” value (osteosarcoma cell U2OS [2]) is reported as “enter the cell nucleus more easily than other compounds”. For the same compound, the “Accumulation in the mitochondria (DAHMI fluorescence brightness level compared with BPA, FIG. 3)” value (osteosarcoma cell U2OS [3]) was “more capable of accumulating in the mitochondria than clinical BPA”.
